{"source": "patent US7566724B2", "about": "“Glycine derivative and use thereof” (Toray Industries, Inc., priority 2004, dated 2009)", "key": {"[1]": {"assay": "Pharmacokinetic Evaluation in Rats", "assay_type": "in vivo", "settings": "rat, male SD rats, administered orally or intravenously, plasma up to 8 hours, LC/MS/MS; for bioavailability: oral, read-out: BA(%) (bioavailability); for clearance: read-out: CLtot (total clearance) (converted)", "description": "Each compound was dissolved at a concentration of 0.5 mg/ml in PBS or in PBS containing 10% PEG. The compound was administered orally or intravenously to male SD rats (7 to 9 weeks old). Blood was collected from the tail vein at time points up to 8 hours after the administration, and blood plasma was collected by centrifugation from each obtained blood. The blood plasma was pretreated by using the solid-phase extraction method, and the concentration of the compound was analyzed with LC/MS/MS (ESI negative mode).\nAs the Comparative Compound, 2-[4-((3,5-dichlorobenzensulfonylamino)methyl)benzoylamino]-5-(4-(methyl-pyrimidin-2-ylamino)phenyl)pento-4-ene acid (XXI) described in WO 99/26923 was used.\n[“BA” in Table 17 means bioavailability, and “CLtot” means total clearance.]"}, "Jurkat cells": {"tested_on": "Jurkat cells", "assay": "Measurement of Inhibitory Effect on Leukocyte Functions (adhesion of Jurkat cells to ligand-expressing cells or ligand-immobilized plate)", "assay_type": "cell-based", "settings": "Homo sapiens, 0.5 h; fluorescently labelled Jurkat cells, ligand-expressing cells or ligand-immobilized plate, 37° C. 30 minutes; read-out: IC50 (adhesion of Jurkat cells)", "description": "Jurkat cells which are a cell line originated from human acute T cell lymphoma were allowed to react with BCECF-AM at 37° C. for 20 minutes to fluorescently label the cells. The fluorescently labelled Jurkat cells were allowed to react with ligand-expressing cells or with a ligand-immobilized plate at 37° C. for 30 minutes. After removing non-adherent cells by washing, 1% NP40 was added to lyse the adherent cells, and fluorescence intensity was measured with Cytoflow 2300 (Millipore). From the obtained fluorescence intensity, the number of adherent cells was calculated. Each test compound was reacted with the Jurkat cells before the beginning of the adhesion reaction. In Table 18, the IC50 of each compound is shown."}, "[2]": {"tested_on": "leukotriene B4 production by neutrophils", "assay": "Measurement of Inhibitory Effect on Inflammatory Mediator Production by Leukocytes (ionomycin-induced leukotriene B4 in neutrophils)", "assay_type": "cell-based", "settings": "0.5 h, human neutrophil suspension, 37° C. 30 minutes, EIA", "description": "A mixture of human peripheral blood and physiological saline containing 3% dextran was left to stand for 30 minutes and then the upper layer was recovered. The upper layer was overlaid on Histopaque 1077 (SIGMA), and the resultant was centrifuged at 1400 rpm for 30 minutes. The supernatant was removed by aspiration and a buffer was added to the precipitate to prepare a neutrophil suspension (4×10^5 cells/mL). To the neutrophil suspension, ionomycin was added and the mixture was incubated at 37° C. for 30 minutes, followed by quantification of leukotriene B4 by EIA (Amersham, Biotrak EIA system). Each test compound was added to the neutrophil suspension before adding ionomycin. In Table 19, the IC50 of each compound is shown."}, "DSS-induced colitis [3]": {"tested_on": "DSS-induced colitis", "assay": "Dextran Sulfate Sodium (DSS)-induced Colitis Model of Mice (1)", "assay_type": "in vivo, Female BALB/c mice", "settings": "3 w/v % DSS for 8 days, scored at day 8", "description": "Female BALB/c mice (Charles River, Japan) of 7 to 9 weeks old were allowed to freely drink 3 w/v % dextran sulfate sodium (DSS) for 8 days to induce colitis. The non-induced (background) group was allowed to freely drink sterilized distilled water. The compound described in Example 28 was orally administered to the mice at a dose of 5 mg/kg, and the compounds described in Example 4, Example 22 and Example 78 were orally administered to the mice at a dose of 15 mg/kg every day. At day 8 from the beginning of the drinking, stool consistency was scored (0: normal stool, 2: loose stool, 4: diarrhea) by using the method described by Murthy et al (see, for example, Dig Dis Sci., 38, 1722 (1993))."}, "DSS-induced colitis [4]": {"tested_on": "DSS-induced colitis", "assay": "Dextran Sulfate Sodium (DSS)-induced Colitis Model of mice (2)", "assay_type": "in vivo, Female BALB/c mice", "settings": "orally 5 mg/kg every day from Day 27 to Day 31; DSS 5 to 7 days then water 5 days, repeated 3 times", "description": "Female BALB/c mice (Charles River, Japan) of 7 to 9 weeks old were allowed to freely drink 3 w/v % dextran sulfate sodium (DSS) for 5 to 7 days, and then to freely drink sterilized distilled water for 5 days. The procedure was repeated 3 times to induce colitis. The non-induced (background) group was allowed to freely drink sterilized distilled water. The compounds described in Examples 81 and 84 were orally administered to the mice at a dose of 5 mg/kg, respectively, every day from Day 27 to Day 31 after from the beginning of the drinking, and stool consistency was scored (0: normal stool, 2: loose stool, 4: diarrhea) by using the method described by Murthy et al (see, for example, Dig Dis Sci., 38, 1722 (1993)."}}}
{"smiles": "COC1(c2ccc(/C=C/CC(NC(=O)c3c(Cl)cccc3Cl)C(=O)O)cc2)CCOCC1", "note": "(centres unmarked) [Example 4, (E)-2-(2,6-Dichlorobenzamido)-5-[4-(4-methoxytetrahydropyran-4-yl)-phenyl]pent-4-enoic acid]", "values": [{"measurement": "bioavailability", "setting": "[1]", "value": 55, "unit": "%"}, {"measurement": "clearance", "setting": "[1]", "value": 10.1, "unit": "mL/min/kg"}, {"measurement": "IC50", "setting": "Jurkat cells", "value": 247, "unit": "nM"}, {"measurement": "IC50", "setting": "[2]", "value": 52300, "unit": "nM"}, {"measurement": "rate of amelioration (stool consistency score)", "setting": "DSS-induced colitis [3]; orally 15 mg/kg every day", "value": 44, "unit": "%"}]}
{"smiles": "CN(c1ccc(/C=C/CC(NC(=O)c2c(Cl)cccc2Cl)C(=O)O)cc1)c1ncccn1", "note": "(centres unmarked) [Example 22, (E)-2-(2,6-Dichlorobenzamido)-5-[4-(methyl-pyrimidin-2-ylamino)phenyl]pent-4-enoic acid]", "values": [{"measurement": "bioavailability", "setting": "[1]", "value": 61.7, "unit": "%"}, {"measurement": "clearance", "setting": "[1]", "value": 5.1, "unit": "mL/min/kg"}, {"measurement": "IC50", "setting": "Jurkat cells", "value": 160, "unit": "nM"}, {"measurement": "IC50", "setting": "[2]", "value": 176000, "unit": "nM"}, {"measurement": "rate of amelioration (stool consistency score)", "setting": "DSS-induced colitis [3]; orally 15 mg/kg every day", "value": 67, "unit": "%"}]}
{"smiles": "CC(C)N(c1ccc(/C=C/CC(NC(=O)c2c(Cl)cccc2Cl)C(=O)O)cc1)c1ncccn1", "note": "(centres unmarked) [Example 28, (E)-2-(2,6-Dichlorobenzamido)-5-[4-(isopropyl-pyrimidin-2-ylamino)phenyl]pent-4-enoic acid]", "values": [{"measurement": "bioavailability", "setting": "[1]", "value": 80.6, "unit": "%"}, {"measurement": "clearance", "setting": "[1]", "value": 14.9, "unit": "mL/min/kg"}, {"measurement": "IC50", "setting": "Jurkat cells", "value": 56, "unit": "nM"}, {"measurement": "IC50", "setting": "[2]", "value": 7400, "unit": "nM"}, {"measurement": "rate of amelioration (stool consistency score)", "setting": "DSS-induced colitis [3]; orally 5 mg/kg every day", "value": 71, "unit": "%"}]}
{"smiles": "COC1(c2ccc(/C=C/C[C@H](NC(=O)c3c(Cl)cccc3Cl)C(=O)[O-])cc2)CCOCC1.[Na+]", "note": "[Example 78, (S,E)-2-(2,6-Dichlorobenzamido)-5-[4-(4-methoxytetrahydropyran-4-yl)-phenyl]pent-4-enoic acid sodium salt]", "values": [{"measurement": "IC50", "setting": "Jurkat cells", "value": 54, "unit": "nM"}, {"measurement": "rate of amelioration (stool consistency score)", "setting": "DSS-induced colitis [3]; orally 15 mg/kg every day", "value": 40, "unit": "%"}]}
{"smiles": "CN(c1ccc(/C=C/C[C@H](NC(=O)c2c(Cl)cccc2Cl)C(=O)[O-])cc1)c1ncccn1.[Na+]", "note": "[Example 81, (S,E)-2-(2,6-Dichlorobenzamido)-5-[4-(methyl-pyrimidin-2-ylamino)phenyl]pent-4-enoic acid sodium salt]", "values": [{"measurement": "bioavailability", "setting": "[1]", "value": 52.1, "unit": "%"}, {"measurement": "clearance", "setting": "[1]", "value": 17, "unit": "mL/min/kg"}, {"measurement": "IC50", "setting": "Jurkat cells", "value": 82, "unit": "nM"}, {"measurement": "rate of amelioration (stool consistency score)", "setting": "DSS-induced colitis [4]", "value": 68.8, "unit": "%"}]}
{"smiles": "CC(C)N(c1ccc(/C=C/C[C@H](NC(=O)c2c(Cl)cccc2Cl)C(=O)[O-])cc1)c1ncccn1.[Na+]", "note": "[Example 84, (S,E)-2-(2,6-Dichlorobenzamido)-5-[4-(isopropyl-pyrimidin-2-ylamino)phenyl]pent-4-enoic acid sodium salt]", "values": [{"measurement": "IC50", "setting": "Jurkat cells", "value": 30, "unit": "nM"}, {"measurement": "rate of amelioration (stool consistency score)", "setting": "DSS-induced colitis [4]", "value": 82.4, "unit": "%"}]}
